From the NIST ThermoML archive (doi:10.1016/j.jct.2013.04.015)
Numbers after ± are expanded uncertainties.

Experiments:
[1] = for surface tension liquid-gas: Wilhelmy plate method; for mass density: 101 kPa, Liquid, Vibrating tube method
[2] = xn = mol fraction of the nth substance listed; details: for surface tension liquid-gas: Wilhelmy plate method; for mass density: 101 kPa, Liquid, Vibrating tube method

CO [methanol]
[1]
Details | mass density [kg/m3] | surface tension liquid-gas [mN/m]
298.15 K | 786.4 ± 0.4 | 22.22 ± 0.31
308.15 K | 776.9 ± 0.4 | 21.46 ± 0.3
318.15 K | 767.2 ± 0.4 | 20.46 ± 0.3

CCCCn1cc[n+](C)c1.C[C@H](O)C(=O)[O-] [1-butyl-3-methylimidazolium L-lactate] + CCO
[2]
Details | mass density [kg/m3] | surface tension liquid-gas [mN/m]
298.15 K, x1 = 0.01 | – | 22.44 ± 0.31
298.15 K, x1 = 0.0299 | – | 22.99 ± 0.31
298.15 K, x1 = 0.0497 | – | 23.47 ± 0.31
298.15 K, x1 = 0.0708 | – | 24 ± 0.31
298.15 K, x1 = 0.0944 | – | 24.54 ± 0.31
298.15 K, x1 = 0.0997 | 897.2 ± 0.5 | –
298.15 K, x1 = 0.1987 | 959.5 ± 0.4 | –
298.15 K, x1 = 0.2001 | – | 26.97 ± 0.31
298.15 K, x1 = 0.3018 | – | 29.2 ± 0.31
298.15 K, x1 = 0.3066 | 1002 ± 0.4 | –
298.15 K, x1 = 0.4019 | – | 31.51 ± 0.32
298.15 K, x1 = 0.4106 | 1028.2 ± 0.4 | –
298.15 K, x1 = 0.4954 | 1042.5 ± 0.4 | –
298.15 K, x1 = 0.499 | – | 33.45 ± 0.33
298.15 K, x1 = 0.5989 | 1058.4 ± 0.4 | –
298.15 K, x1 = 0.6216 | – | 35.27 ± 0.33
298.15 K, x1 = 0.6985 | 1070.8 ± 0.5 | –
298.15 K, x1 = 0.7009 | – | 36.3 ± 0.34
298.15 K, x1 = 0.7524 | – | 37.06 ± 0.34
298.15 K, x1 = 0.7869 | 1082.1 ± 0.5 | –
298.15 K, x1 = 0.8381 | – | 38.77 ± 0.35
298.15 K, x1 = 0.8978 | 1095.2 ± 0.5 | –
298.15 K, x1 = 1 | 1111.2 ± 0.5 | 42.92 ± 0.37
308.15 K, x1 = 0.01 | – | 21.58 ± 0.31
308.15 K, x1 = 0.0302 | – | 22.12 ± 0.31
308.15 K, x1 = 0.0474 | – | 22.62 ± 0.31
308.15 K, x1 = 0.0707 | – | 23.22 ± 0.31
308.15 K, x1 = 0.0952 | – | 23.9 ± 0.31
308.15 K, x1 = 0.0997 | 888.9 ± 0.5 | –
308.15 K, x1 = 0.1987 | 951.9 ± 0.4 | –
308.15 K, x1 = 0.2028 | – | 26.53 ± 0.31
308.15 K, x1 = 0.3026 | – | 28.8 ± 0.31
308.15 K, x1 = 0.3066 | 994.7 ± 0.4 | –
308.15 K, x1 = 0.406 | – | 31.08 ± 0.32
308.15 K, x1 = 0.4106 | 1021.1 ± 0.4 | –
308.15 K, x1 = 0.4954 | 1034.3 ± 0.4 | –
308.15 K, x1 = 0.4966 | – | 32.88 ± 0.32
308.15 K, x1 = 0.5989 | 1050.4 ± 0.4 | –
308.15 K, x1 = 0.6053 | – | 34.78 ± 0.33
308.15 K, x1 = 0.6882 | – | 35.51 ± 0.34
308.15 K, x1 = 0.6985 | 1062.4 ± 0.5 | –
308.15 K, x1 = 0.7869 | 1073.8 ± 0.5 | –
308.15 K, x1 = 0.7888 | – | 36.81 ± 0.34
308.15 K, x1 = 0.8313 | – | 37.9 ± 0.35
308.15 K, x1 = 0.8978 | 1086.9 ± 0.5 | –
308.15 K, x1 = 1 | 1104.2 ± 0.5 | 42.37 ± 0.37
318.15 K, x1 = 0.01 | – | 20.88 ± 0.3
318.15 K, x1 = 0.0304 | – | 21.56 ± 0.31
318.15 K, x1 = 0.0448 | – | 21.9 ± 0.31
318.15 K, x1 = 0.0702 | – | 22.56 ± 0.31
318.15 K, x1 = 0.0958 | – | 23.39 ± 0.31
318.15 K, x1 = 0.0997 | 881.9 ± 0.5 | –
318.15 K, x1 = 0.1987 | 944 ± 0.4 | –
318.15 K, x1 = 0.203 | – | 26.09 ± 0.31
318.15 K, x1 = 0.3032 | – | 28.36 ± 0.31
318.15 K, x1 = 0.3066 | 987.7 ± 0.4 | –
318.15 K, x1 = 0.4034 | – | 30.45 ± 0.32
318.15 K, x1 = 0.4106 | 1014.5 ± 0.4 | –
318.15 K, x1 = 0.4954 | 1028.3 ± 0.4 | –
318.15 K, x1 = 0.5017 | – | 32.46 ± 0.32
318.15 K, x1 = 0.5989 | 1042.6 ± 0.4 | –
318.15 K, x1 = 0.6042 | – | 34.23 ± 0.33
318.15 K, x1 = 0.6657 | – | 34.84 ± 0.33
318.15 K, x1 = 0.6985 | 1055.3 ± 0.4 | –
318.15 K, x1 = 0.7561 | – | 35.48 ± 0.34
318.15 K, x1 = 0.7869 | 1066.9 ± 0.5 | –
318.15 K, x1 = 0.8319 | – | 36.61 ± 0.34
318.15 K, x1 = 0.8978 | 1079.8 ± 0.5 | –
318.15 K, x1 = 1 | 1097.7 ± 0.5 | 42.01 ± 0.37

CO [methanol] + CCCCn1cc[n+](C)c1.C[C@H](O)C(=O)[O-]
[2], x2 = 0
Details | mass density [kg/m3] | surface tension liquid-gas [mN/m]
298.15 K | 786.4 ± 0.4 | 22.22 ± 0.31
308.15 K | 776.9 ± 0.4 | 21.46 ± 0.3
318.15 K | 767.2 ± 0.4 | 20.46 ± 0.3
